According to patent publication US10633419B2, “Immunomodulators” (BRISTOL-MYERS SQUIBB COMPANY, priority 2014, dated 2020):
Like-named read-outs stand apart in the source and are kept apart here. Starred links: 1 amine or outer side, 2 acyl side, 3 side chain; linkers in the order of their positions; H or OH if unused. Positions of bridges follow the written chain, without caps; N, C: chain ends. Non-standard residues stand in square brackets, D forms with d. Residues, ends and D or L forms follow the SMILES beside them. Groups on a side chain read outwards from the residue. ξ: configuration not given here. *: point of attachment. X12 = O=C(O)CCCCCCCCCCCCCCCCCCC(=O)N[C@@H](CCC(=O)NCCCOCCOCCOCCCN*)C(=O)O; Trp(1-CH2COOH) = N[C@@H](Cc1cn(CC(=O)O)c2ccccc12)C(=O)O; X23 = O=C(CCCCOCCOCCOCCCN[*:3])C[C@H](N[*:1])C(=O)[*:2]; X9 = O=C(O)CCCCCCCCCCCCCCCCC(=O)N[C@@H](CCN*)C(=O)O; X24 = O=C(C[C@@H](Cc1ccc(O)cc1)C(=O)[*:1])C[*:2]; NH(CH2)16COOH = O=C(O)CCCCCCCCCCCCCCCCN*; C16 diacid = O=C(O)CCCCCCCCCCCCCCC(=O)*; NH(CH2)14COOH = O=C(O)CCCCCCCCCCCCCCN*; γGlu = O=C(O)[C@H](CCC(=O)[*:2])N[*:1]; d(cisHyp) = O=C(O)[C@H]1C[C@@H](O)CN1; βAsp = O=C(O)[C@H](CC(=O)[*:2])N[*:1]; Bta = N[C@@H](Cc1csc2ccccc12)C(=O)O; ξPro(4R-OH) = O=C(O)C1C[C@@H](O)CN1; PEG6 = NCCOCCOCCOCCOCCOCCOCCC(=O)O; Hyp = O=C(O)[C@@H]1C[C@@H](O)CN1; Undecanoyl = CCCCCCCCCCC(=O)*; NMeNle = CCCC[C@H](NC)C(=O)O; Pip = O=C(O)[C@@H]1CCCCN1; NMeA = CN[C@@H](C)C(=O)O; Pra = C#CC[C@H](N)C(=O)O; Aun = NCCCCCCCCCCC(=O)O; Dab = NCC[C@H](N)C(=O)O; Dap = NC[C@H](N)C(=O)O; AEA = NCCOCC(=O)O

Molecular target: T1, PD-L1 (Homo sapiens, UniProt Q9NZQ7)
T1 construct: hPDL1(19-239)-TVMV-His; made in house; host or cells: HEK293T
Test: PD-1/PD-L1 Homogenous Time-Resolved Fluorescence (HTRF) binding assay (PD-1-Ig/PD-L1-His)
Settings: inhibition of PD-1-Ig binding to PD-L1-TVMV-His, read-out: HTRF IC50
Outline: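 HTRF competition in dPBS with 0.1% BSA and 0.05% Tween-20: 20 nM PD-1-Ig added after 15 min compound pre-incubation with 10 nM PD-L1-His, then another 15 min. Signal (665/620 nm) after 30 min with APC anti-His (20 nM) and Eu anti-Ig (1 nM).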

T1 sequence (Q9NZQ7 with tags, fused parts or gaps): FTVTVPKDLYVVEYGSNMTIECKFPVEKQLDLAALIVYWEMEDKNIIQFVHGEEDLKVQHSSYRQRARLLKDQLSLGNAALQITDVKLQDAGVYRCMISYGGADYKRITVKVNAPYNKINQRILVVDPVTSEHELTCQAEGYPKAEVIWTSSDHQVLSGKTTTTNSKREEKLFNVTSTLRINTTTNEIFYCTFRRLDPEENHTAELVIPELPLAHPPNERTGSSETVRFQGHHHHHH

IC50 (value given as range class) [nM]	IC50 (value given as number) [nM]	Compound
0.3 to 9.9		CCCC[C@H]1C(=O)N(C)[C@@H](CCCC)C(=O)N[C@@H](CC(C)C)C(=O)N[C@H](C(=O)NCC(=O)N[C@@H](CC(=O)NCCOCC(=O)NCC[C@H](NC(=O)CCCCCCCCCCCCCCCCC(=O)O)C(=O)O)C(=O)O)CSCC(=O)N[C@@H](Cc2ccc(O)cc2)C(=O)N2CCCC[C@H]2C(=O)N[C@@H](CC(N)=O)C(=O)N2CCC[C@H]2C(=O)N[C@@H](CN)C(=O)N[C@@H](CC(C)C)C(=O)N2C[C@H](O)C[C@H]2C(=O)N[C@@H](Cc2c[nH]c3ccccc23)C(=O)N[C@@H](CCN)C(=O)N[C@@H](Cc2cn(CC(=O)O)c3ccccc23)C(=O)N1C [Example 13159] ({CH2CO}-Y[Pip]NP[Dap]L[Hyp]W[Dab][Trp(1-CH2COOH)][NMeNle][NMeNle]LCG[βAsp][AEA]-X9; thioether N-14)
0.3 to 9.9		CCCC[C@H]1C(=O)N(C)[C@@H](CCCC)C(=O)N[C@@H](CC(C)C)C(=O)N[C@H](C(=O)NCC(=O)N[C@@H](CC(=O)O)C(=O)N[C@@H](CCC(=O)NCCCOCCOCCOCCCNC(=O)CC[C@H](NC(=O)CCCCCCCCCCCCCCCCCCC(=O)O)C(=O)O)C(=O)O)CSCC(=O)N[C@@H](Cc2ccc(O)cc2)C(=O)N(C)[C@@H](C)C(=O)N[C@@H](CC(N)=O)C(=O)N2CCC[C@H]2C(=O)N[C@@H](CN)C(=O)N[C@@H](CC(C)C)C(=O)N2C[C@H](O)CC2C(=O)N[C@@H](Cc2c[nH]c3ccccc23)C(=O)N[C@@H](CCN)C(=O)N[C@@H](Cc2cn(CC(=O)O)c3ccccc23)C(=O)N1C (stereo partly drawn) [Example 11249] ({CH2CO}-Y[NMeA]NP[Dap]L[ξPro(4R-OH)]W[Dab][Trp(1-CH2COOH)][NMeNle][NMeNle]LCGDE(X12)-OH; thioether N-14)
	790	CCCC[C@H]1C(=O)N(C)[C@@H](CCCC)C(=O)N[C@@H](CC(C)C)C(=O)N[C@H](C(=O)NCC(=O)N[C@@H](Cc2cn(CC[C@H](NC(=O)CCCCCCCCCCCCCCCCC(=O)O)C(=O)O)nn2)C(N)=O)CSCC(=O)N[C@@H](Cc2ccc(O)cc2)C(=O)N(C)[C@@H](C)C(=O)N[C@@H](CC(N)=O)C(=O)N2CCC[C@H]2C(=O)N[C@@H](CN)C(=O)N[C@@H](CC(C)C)C(=O)N2C[C@H](O)C[C@H]2C(=O)N[C@@H](Cc2c[nH]c3ccccc23)C(=O)N[C@@H](CCN)C(=O)N[C@@H](Cc2cn(CC(=O)O)c3ccccc23)C(=O)N1C [Example 14096]
0.3 to 9.9		CCCC[C@H]1C(=O)N(C)[C@@H](CCCC)C(=O)N[C@@H](CC(C)C)C(=O)N[C@H](C(=O)NCC(=O)N[C@@H](CCC(=O)O)C(=O)NCCCOCCOCCOCCCNC(=O)CC[C@H](NC(=O)CCCCCCCCCCCCCCCCCCC(=O)O)C(=O)O)CSCC(=O)N[C@@H](Cc2ccc(O)cc2)C(=O)N(C)[C@@H](C)C(=O)N[C@@H](CC(N)=O)C(=O)N2CCC[C@H]2C(=O)N[C@@H](CN)C(=O)N[C@@H](CC(C)C)C(=O)N2C[C@H](O)C[C@H]2C(=O)N[C@@H](Cc2c[nH]c3ccccc23)C(=O)N[C@@H](CCN)C(=O)N[C@@H](Cc2cn(CC(=O)O)c3ccccc23)C(=O)N1C [Example 11226] ({CH2CO}-Y[NMeA]NP[Dap]L[Hyp]W[Dab][Trp(1-CH2COOH)][NMeNle][NMeNle]LCGE-X12; thioether N-14)
	9.2	CCCC[C@H]1C(=O)N(C)[C@@H](CCCC)C(=O)N[C@@H](CCCNC(=N)N)C(=O)N[C@H](C(=O)NCC(=O)NCCCCCCCCCCC(=O)NCCCCCCCCCCC(=O)O)CSCC(=O)N[C@@H](Cc2ccc(O)cc2)C(=O)N(C)[C@@H](C)C(=O)N[C@@H](CC(N)=O)C(=O)N2CCC[C@H]2C(=O)N[C@@H](Cc2cnc[nH]2)C(=O)N[C@@H](CC(C)C)C(=O)N2C[C@H](O)C[C@H]2C(=O)N[C@@H](Cc2c[nH]c3ccccc23)C(=O)N[C@@H](CO)C(=O)N[C@@H](Cc2c[nH]c3ccccc23)C(=O)N1C [Example 11063] ({CH2CO}-Y[NMeA]NPHL[Hyp]WSW[NMeNle][NMeNle]RCG[Aun][Aun]-OH; thioether N-14)
10 to 99		CCCCCCCCCCCCCCCC(=O)N[C@@H](CCn1cc(C[C@H](NC(=O)CNC(=O)[C@@H]2CSCC(=O)N[C@@H](Cc3ccc(O)cc3)C(=O)N(C)[C@@H](C)C(=O)N[C@@H](CC(=O)O)C(=O)N3CCC[C@H]3C(=O)N[C@@H](Cc3c[nH]cn3)C(=O)N[C@@H](CCC(N)=O)C(=O)N3C[C@H](O)C[C@H]3C(=O)N[C@@H](Cc3c[nH]c4ccccc34)C(=O)N[C@@H](CO)C(=O)N[C@@H](Cc3c[nH]c4ccccc34)C(=O)N(C)[C@@H](CCCC)C(=O)N(C)[C@@H](CCCC)C(=O)N[C@@H](CCC(=O)O)C(=O)N2)C(=O)NCC(N)=O)nn1)C(=O)O [Example 14062]
0.3 to 9.9		C#CC[C@H](NC(=O)CNC(=O)[C@@H]1CSCC(=O)N[C@@H](Cc2ccc(O)cc2)C(=O)N(C)[C@@H](C)C(=O)N[C@@H](CC(N)=O)C(=O)N2CCC[C@H]2C(=O)N[C@@H](CN)C(=O)N[C@@H](CC(C)C)C(=O)N2C[C@H](O)C[C@H]2C(=O)N[C@@H](Cc2c[nH]c3ccccc23)C(=O)N[C@@H](CO)C(=O)N[C@@H](Cc2csc3ccccc23)C(=O)N(C)[C@@H](CCCC)C(=O)N(C)[C@@H](CCCC)C(=O)N[C@@H](CCCNC(=N)N)C(=O)N1)C(N)=O [INT 1300A] ({CH2CO}-Y[NMeA]NP[Dap]L[Hyp]WS[Bta][NMeNle][NMeNle]RCG[Pra]-NH2; thioether N-14)
10 to 99		C#CC[C@H](NC(=O)CNC(=O)[C@@H]1CSCC(=O)N[C@@H](Cc2ccc(O)cc2)C(=O)N(C)[C@@H](C)C(=O)N[C@@H](CC(N)=O)C(=O)N2CCC[C@H]2C(=O)N[C@@H](CN)C(=O)N[C@@H](CC(C)C)C(=O)N2C[C@H](O)C[C@H]2C(=O)N[C@@H](Cc2c[nH]c3ccccc23)C(=O)N[C@@H](CCN)C(=O)N[C@@H](Cc2cn(CC(=O)O)c3ccccc23)C(=O)N(C)[C@@H](CCCC)C(=O)N(C)[C@@H](CCCC)C(=O)N[C@@H](CC(C)C)C(=O)N1)C(=O)O [INT 1300V] ({CH2CO}-Y[NMeA]NP[Dap]L[Hyp]W[Dab][Trp(1-CH2COOH)][NMeNle][NMeNle]LCG[Pra]-OH; thioether N-14)
100 to 1600		CCCC[C@H]1C(=O)N(C)[C@@H](CCCC)C(=O)N[C@@H](CC(C)C)C(=O)N[C@H](C(=O)NCC(=O)NCC(=O)NCCCCCCCCCCCCCCCCC(=O)O)CSCC(=O)N[C@@H](Cc2ccc(O)cc2)C(=O)N(C)[C@@H](C)C(=O)N[C@@H](CC(N)=O)C(=O)N2CCC[C@H]2C(=O)N[C@@H](CN)C(=O)N[C@@H](CC(C)C)C(=O)N2C[C@H](O)C[C@H]2C(=O)N[C@@H](Cc2c[nH]c3ccccc23)C(=O)N[C@@H](CCN)C(=O)N[C@@H](Cc2cn(CC(=O)O)c3ccccc23)C(=O)N1C [Example 11189] ({CH2CO}-Y[NMeA]NP[Dap]L[Hyp]W[Dab][Trp(1-CH2COOH)][NMeNle][NMeNle]LCGG-{NH(CH2)16COOH}; thioether N-14)
10 to 99		CCCC[C@H]1C(=O)N(C)[C@@H](CCCC)C(=O)N[C@@H](CC(C)C)C(=O)N[C@H](C(=O)NCC(=O)N[C@@H](CC(=O)CCCCOCCOCCOCCCNC(=O)CC[C@H](NC(=O)CCCCCCCCCCCCCCC(=O)O)C(=O)O)C(=O)O)CSCC(=O)N[C@@H](Cc2ccc(O)cc2)C(=O)N(C)[C@@H](C)C(=O)N[C@@H](CC(N)=O)C(=O)N2CCC[C@H]2C(=O)N[C@@H](CN)C(=O)N[C@@H](CC(C)C)C(=O)N2C[C@H](O)C[C@@H]2C(=O)N[C@@H](Cc2c[nH]c3ccccc23)C(=O)N[C@@H](CCN)C(=O)N[C@@H](Cc2cn(CC(=O)O)c3ccccc23)C(=O)N1C [Example 11158] ({CH2CO}-Y[NMeA]NP[Dap]L[d(cisHyp)]W[Dab][Trp(1-CH2COOH)][NMeNle][NMeNle]LCG[X23]([γGlu-C16 diacid])-OH; thioether N-14)
10 to 99		CCCCCCCCCCC(=O)NCCCC[C@H](NC(=O)CCOCCOCCOCCOCCOCCOCCNC(=O)[C@@H]1CSCC(=O)C[C@@H](Cc2ccc(O)cc2)C(=O)N(C)[C@@H](C)C(=O)N[C@@H](CC(N)=O)C(=O)N2CCC[C@H]2C(=O)N[C@@H](Cc2cnc[nH]2)C(=O)N[C@@H](CCC(=O)O)C(=O)N2C[C@H](O)C[C@H]2C(=O)N[C@@H](Cc2c[nH]c3ccccc23)C(=O)N[C@@H](CCN)C(=O)N[C@@H](Cc2cn(CC(=O)O)c3ccccc23)C(=O)N(C)[C@@H](CCCC)C(=O)N(C)[C@@H](CCCC)C(=O)N[C@@H](CC(C)C)C(=O)N1)C(N)=O [Example 11012] ([NMeA]NPHE[Hyp]W[Dab][Trp(1-CH2COOH)][NMeNle][NMeNle]LC[PEG6]K(Undecanoyl)-NH2; linker N-13 via X24)
10 to 99		CCCC[C@H]1C(=O)N(C)[C@@H](CCCC)C(=O)N[C@@H](CC(C)C)C(=O)N[C@H](C(=O)NCC(=O)NCCCCCCCCCCC(=O)O)CSCC(=O)N[C@@H](Cc2ccc(O)cc2)C(=O)N(C)[C@@H](C)C(=O)N[C@@H](CC(N)=O)C(=O)N2CCC[C@H]2C(=O)N[C@@H](CO)C(=O)N[C@@H](CCC(N)=O)C(=O)N2C[C@H](O)C[C@H]2C(=O)N[C@@H](Cc2c[nH]c3ccccc23)C(=O)N[C@@H](CO)C(=O)N[C@@H](Cc2cn(CC(=O)O)c3ccccc23)C(=O)N1C [Example 11084] ({CH2CO}-Y[NMeA]NPSQ[Hyp]WS[Trp(1-CH2COOH)][NMeNle][NMeNle]LCG[Aun]-OH; thioether N-14)
10 to 99		CCCC[C@H]1C(=O)N(C)[C@@H](CCCC)C(=O)N[C@@H](CC(C)C)C(=O)N[C@H](C(=O)NCCCCCCCCCCCCCCC(=O)O)CSCC(=O)N[C@@H](Cc2ccc(O)cc2)C(=O)N(C)[C@@H](C)C(=O)N[C@@H](CC(N)=O)C(=O)N2CCC[C@H]2C(=O)N[C@@H](CN)C(=O)N[C@@H](CC(C)C)C(=O)N2C[C@H](O)C[C@H]2C(=O)N[C@@H](Cc2c[nH]c3ccccc23)C(=O)N[C@@H](CCN)C(=O)N[C@@H](Cc2cn(CC(=O)O)c3ccccc23)C(=O)N1C [Example 11196] ({CH2CO}-Y[NMeA]NP[Dap]L[Hyp]W[Dab][Trp(1-CH2COOH)][NMeNle][NMeNle]LC-{NH(CH2)14COOH}; thioether N-14)
